Experimental data taken from the kinase profiling compilation of Christmann-Franck et al. (2016).

Experiments:
Assay in all cases: radiometric filter-binding kinase assay, Kinase HotSpot
Conditions in all cases: compound 0.5 µM; ATP 10 µM
AURKC (human) = AURKC (human) (UniProt Q9UQB9)
CAMK1G (human) = CAMK1G (human) (UniProt Q96NX5)
CDC42BPB (human) = CDC42BPB (human) (UniProt Q9Y5S2)
CLK1 (human) = CLK1 (human) (UniProt P49759)
DSTYK (human) = DSTYK (human) (UniProt Q6XUX3)
DYRK4 (human) = DYRK4 (human) (UniProt Q9NR20)
FRK (human) = FRK (human) (UniProt P42685)
IGF1R (human) = IGF1R (human) (UniProt P08069)
IKBKB (human) = IKBKB (human) (UniProt O14920)
LCK (human) = LCK (human) (UniProt P06239)
Chain of LCK (human) (P06239 whole entry, looked up): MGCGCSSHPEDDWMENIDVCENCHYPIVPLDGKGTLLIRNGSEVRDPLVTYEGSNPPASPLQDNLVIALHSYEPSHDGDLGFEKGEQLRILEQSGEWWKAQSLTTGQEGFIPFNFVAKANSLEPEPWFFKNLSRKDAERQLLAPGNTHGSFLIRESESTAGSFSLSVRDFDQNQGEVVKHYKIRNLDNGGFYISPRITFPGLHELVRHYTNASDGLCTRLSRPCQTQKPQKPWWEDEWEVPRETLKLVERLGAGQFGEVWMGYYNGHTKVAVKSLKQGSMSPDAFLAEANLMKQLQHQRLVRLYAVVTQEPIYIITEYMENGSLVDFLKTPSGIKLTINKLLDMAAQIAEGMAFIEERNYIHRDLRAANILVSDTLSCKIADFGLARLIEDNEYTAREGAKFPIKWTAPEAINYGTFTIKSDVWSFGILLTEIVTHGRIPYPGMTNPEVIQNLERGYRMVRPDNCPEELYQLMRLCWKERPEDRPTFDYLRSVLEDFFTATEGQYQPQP

LIMK1 (human) = LIMK1 (human) (UniProt P53667)
MAP3K2 (human) = MAP3K2 (human) (UniProt Q9Y2U5)
MAP3K3 (human) = MAP3K3 (human) (UniProt Q99759)
MAP3K7 TAB1 (human) = MAP3K7 TAB1 (human) (UniProt O43318+Q15750)
MAP4K5 (human) = MAP4K5 (human) (UniProt Q9Y4K4)
MAPK13 (human) = MAPK13 (human) (UniProt O15264)
MAPKAPK5 (human) = MAPKAPK5 (human) (UniProt Q8IW41)
MARK4 (human) = MARK4 (human) (UniProt Q96L34)
MERTK (human) = MERTK (human) (UniProt Q12866)
MINK1 (human) = MINK1 (human) (UniProt Q8N4C8)
MST4 (human) = MST4 (human) (UniProt Q9P289)
Chain of MST4 (human) (Q9P289 whole entry, looked up): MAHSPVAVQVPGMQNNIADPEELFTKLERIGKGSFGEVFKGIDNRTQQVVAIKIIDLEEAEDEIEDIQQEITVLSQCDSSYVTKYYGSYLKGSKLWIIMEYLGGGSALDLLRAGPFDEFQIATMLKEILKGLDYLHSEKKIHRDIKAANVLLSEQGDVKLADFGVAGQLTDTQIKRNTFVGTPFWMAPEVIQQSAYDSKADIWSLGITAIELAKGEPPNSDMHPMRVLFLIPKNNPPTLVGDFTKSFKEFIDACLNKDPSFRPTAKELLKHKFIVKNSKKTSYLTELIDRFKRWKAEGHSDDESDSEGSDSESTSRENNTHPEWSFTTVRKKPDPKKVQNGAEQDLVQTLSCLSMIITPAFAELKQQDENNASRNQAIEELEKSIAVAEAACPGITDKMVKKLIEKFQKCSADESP

PAK2 (human) = PAK2 (human) (UniProt Q13177)
PDGFRB (human) = PDGFRB (human) (UniProt P09619)
PDPK1 (human) = PDPK1 (human) (UniProt O15530)
PLK3 (human) = PLK3 (human) (UniProt Q9H4B4)
PRKCD (human) = PRKCD (human) (UniProt Q05655)
PRKCZ (human) = PRKCZ (human) (UniProt Q05513)
PRKX (human) = PRKX (human) (UniProt P51817)
Chain of PRKX (human) (P51817 whole entry, looked up): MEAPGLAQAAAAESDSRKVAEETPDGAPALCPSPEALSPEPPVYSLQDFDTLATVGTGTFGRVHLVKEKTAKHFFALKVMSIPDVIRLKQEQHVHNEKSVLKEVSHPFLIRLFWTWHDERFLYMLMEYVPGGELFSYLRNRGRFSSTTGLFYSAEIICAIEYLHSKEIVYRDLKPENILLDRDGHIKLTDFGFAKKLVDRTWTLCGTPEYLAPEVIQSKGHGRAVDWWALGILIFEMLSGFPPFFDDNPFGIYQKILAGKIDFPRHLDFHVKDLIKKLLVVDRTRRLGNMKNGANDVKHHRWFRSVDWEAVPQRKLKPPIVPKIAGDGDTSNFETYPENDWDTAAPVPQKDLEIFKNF

PTK2 (human) = PTK2 (human) (UniProt Q05397)
Chain of PTK2 (human) (Q05397 whole entry, looked up): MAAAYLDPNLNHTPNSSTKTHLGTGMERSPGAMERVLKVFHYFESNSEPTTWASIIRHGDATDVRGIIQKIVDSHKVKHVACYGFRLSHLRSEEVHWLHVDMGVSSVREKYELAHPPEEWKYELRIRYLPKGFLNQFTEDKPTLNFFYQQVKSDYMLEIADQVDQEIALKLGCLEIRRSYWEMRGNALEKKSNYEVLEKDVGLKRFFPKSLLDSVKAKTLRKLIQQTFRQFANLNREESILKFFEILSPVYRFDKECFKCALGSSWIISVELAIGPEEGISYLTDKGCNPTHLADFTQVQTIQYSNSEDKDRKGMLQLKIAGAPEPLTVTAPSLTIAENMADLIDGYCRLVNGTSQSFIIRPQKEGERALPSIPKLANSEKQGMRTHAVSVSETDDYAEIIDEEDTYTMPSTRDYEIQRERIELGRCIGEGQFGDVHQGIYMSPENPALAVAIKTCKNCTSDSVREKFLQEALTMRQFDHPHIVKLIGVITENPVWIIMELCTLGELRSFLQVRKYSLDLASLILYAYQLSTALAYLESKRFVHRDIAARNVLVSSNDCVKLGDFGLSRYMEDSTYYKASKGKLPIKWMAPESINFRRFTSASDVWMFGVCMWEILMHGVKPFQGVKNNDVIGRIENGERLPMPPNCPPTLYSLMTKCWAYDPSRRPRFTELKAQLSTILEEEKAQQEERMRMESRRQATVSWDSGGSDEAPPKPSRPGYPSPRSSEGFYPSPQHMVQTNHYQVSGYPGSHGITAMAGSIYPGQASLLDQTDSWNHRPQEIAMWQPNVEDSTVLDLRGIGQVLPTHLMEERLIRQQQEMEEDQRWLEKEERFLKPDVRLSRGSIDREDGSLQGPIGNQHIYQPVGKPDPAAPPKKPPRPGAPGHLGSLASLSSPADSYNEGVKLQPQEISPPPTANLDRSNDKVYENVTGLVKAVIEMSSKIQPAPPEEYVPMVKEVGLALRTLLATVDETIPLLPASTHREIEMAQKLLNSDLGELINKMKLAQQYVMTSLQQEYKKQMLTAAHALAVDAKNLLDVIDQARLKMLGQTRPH

RET (human) = RET (human) (UniProt P07949)
RIPK2 (human) = RIPK2 (human) (UniProt O43353)
RPS6KA5 KD2 (human) = RPS6KA5 KD2 (human) (UniProt O75582)
RPS6KA6 KD1 KD2 (human) = RPS6KA6 KD1 KD2 (human) (UniProt Q9UK32)
STK11 (human) = STK11 (human) (UniProt Q15831)
TAOK2 (human) = TAOK2 (human) (UniProt Q9UL54)
Chain of TAOK2 (human) (Q9UL54 whole entry, looked up): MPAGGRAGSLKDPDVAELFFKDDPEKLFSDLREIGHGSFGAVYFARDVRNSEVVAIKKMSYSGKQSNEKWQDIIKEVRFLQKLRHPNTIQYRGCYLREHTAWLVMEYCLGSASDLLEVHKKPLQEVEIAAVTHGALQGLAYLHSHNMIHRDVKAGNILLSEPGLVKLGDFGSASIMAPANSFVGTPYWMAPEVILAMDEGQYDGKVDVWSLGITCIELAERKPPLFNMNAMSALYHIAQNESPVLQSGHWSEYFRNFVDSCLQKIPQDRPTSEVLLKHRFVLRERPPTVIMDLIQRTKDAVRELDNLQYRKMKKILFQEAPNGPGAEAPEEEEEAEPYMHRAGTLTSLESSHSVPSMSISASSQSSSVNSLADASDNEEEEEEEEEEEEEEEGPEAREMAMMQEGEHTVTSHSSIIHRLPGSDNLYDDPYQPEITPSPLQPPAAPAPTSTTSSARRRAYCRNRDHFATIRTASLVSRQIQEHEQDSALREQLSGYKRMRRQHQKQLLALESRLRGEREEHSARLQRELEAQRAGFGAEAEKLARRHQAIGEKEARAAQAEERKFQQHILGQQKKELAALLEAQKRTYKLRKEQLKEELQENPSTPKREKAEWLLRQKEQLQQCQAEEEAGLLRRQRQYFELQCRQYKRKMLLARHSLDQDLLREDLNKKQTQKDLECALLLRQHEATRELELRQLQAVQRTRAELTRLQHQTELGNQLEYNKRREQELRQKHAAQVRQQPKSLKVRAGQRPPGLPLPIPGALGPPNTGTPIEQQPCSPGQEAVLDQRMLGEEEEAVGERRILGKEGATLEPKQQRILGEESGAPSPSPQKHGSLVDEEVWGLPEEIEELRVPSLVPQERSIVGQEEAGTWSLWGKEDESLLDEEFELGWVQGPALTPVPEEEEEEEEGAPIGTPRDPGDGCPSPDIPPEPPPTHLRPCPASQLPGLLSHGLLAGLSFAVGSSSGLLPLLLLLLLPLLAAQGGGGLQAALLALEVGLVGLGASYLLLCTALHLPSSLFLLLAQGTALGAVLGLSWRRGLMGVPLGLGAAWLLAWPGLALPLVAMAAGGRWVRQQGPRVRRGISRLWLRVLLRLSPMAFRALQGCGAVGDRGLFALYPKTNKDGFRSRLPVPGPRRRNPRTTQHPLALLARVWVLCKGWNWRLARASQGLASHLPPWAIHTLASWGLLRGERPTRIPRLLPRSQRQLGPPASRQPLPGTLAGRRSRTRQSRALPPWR

TGFBR1 (human) = TGFBR1 (human) (UniProt P36897)
TSSK2 (human) = TSSK2 (human) (UniProt Q96PF2)
TXK (human) = TXK (human) (UniProt P42681)
ZAP70 (human) = ZAP70 (human) (UniProt P43403)
Chain of ZAP70 (human) (P43403 whole entry, looked up): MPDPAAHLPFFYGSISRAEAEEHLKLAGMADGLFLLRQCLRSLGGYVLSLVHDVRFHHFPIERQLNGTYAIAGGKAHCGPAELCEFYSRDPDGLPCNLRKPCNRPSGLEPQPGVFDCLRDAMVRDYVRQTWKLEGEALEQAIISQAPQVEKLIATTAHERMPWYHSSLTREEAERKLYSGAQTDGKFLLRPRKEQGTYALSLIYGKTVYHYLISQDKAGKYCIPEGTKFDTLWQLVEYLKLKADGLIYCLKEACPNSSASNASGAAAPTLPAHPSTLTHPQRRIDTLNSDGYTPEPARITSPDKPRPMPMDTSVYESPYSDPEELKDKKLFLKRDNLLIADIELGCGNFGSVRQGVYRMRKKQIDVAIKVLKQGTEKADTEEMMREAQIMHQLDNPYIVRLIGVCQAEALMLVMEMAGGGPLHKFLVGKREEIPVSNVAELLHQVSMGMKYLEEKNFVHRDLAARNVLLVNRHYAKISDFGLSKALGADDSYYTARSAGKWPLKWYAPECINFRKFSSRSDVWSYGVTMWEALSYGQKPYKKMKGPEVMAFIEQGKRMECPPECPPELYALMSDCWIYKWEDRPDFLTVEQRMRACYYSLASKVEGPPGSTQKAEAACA

EPHB2 (human) = EPHB2 (human) (UniProt P29323)
GSK3B (human) = GSK3B (human) (UniProt P49841)
BTK (human) = BTK (human) (UniProt Q06187)

Chain of AURKC (human) (Q9UQB9 whole entry, looked up): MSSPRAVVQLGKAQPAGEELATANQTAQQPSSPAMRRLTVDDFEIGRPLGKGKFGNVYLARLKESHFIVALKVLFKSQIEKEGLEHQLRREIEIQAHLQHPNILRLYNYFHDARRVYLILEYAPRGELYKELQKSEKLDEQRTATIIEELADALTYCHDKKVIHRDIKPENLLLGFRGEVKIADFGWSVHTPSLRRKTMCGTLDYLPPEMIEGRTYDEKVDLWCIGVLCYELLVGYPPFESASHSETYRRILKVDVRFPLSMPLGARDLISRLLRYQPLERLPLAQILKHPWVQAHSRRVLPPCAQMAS
Chain of CAMK1G (human) (Q96NX5 whole entry, looked up): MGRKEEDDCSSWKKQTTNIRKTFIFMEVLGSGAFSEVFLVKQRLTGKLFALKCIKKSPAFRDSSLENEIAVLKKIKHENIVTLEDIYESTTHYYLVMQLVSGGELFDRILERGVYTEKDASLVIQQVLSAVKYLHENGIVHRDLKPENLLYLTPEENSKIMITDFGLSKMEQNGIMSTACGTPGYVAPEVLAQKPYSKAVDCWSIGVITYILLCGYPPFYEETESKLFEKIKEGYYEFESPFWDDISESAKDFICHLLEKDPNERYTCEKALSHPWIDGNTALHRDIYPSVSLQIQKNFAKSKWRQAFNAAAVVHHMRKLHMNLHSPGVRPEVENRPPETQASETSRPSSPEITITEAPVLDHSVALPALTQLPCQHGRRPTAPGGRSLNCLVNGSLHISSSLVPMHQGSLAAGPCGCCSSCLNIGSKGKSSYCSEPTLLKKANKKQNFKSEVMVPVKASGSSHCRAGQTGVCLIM

`Cc1cncc2cccc(S(=O)(=O)N3CCCN(C(=O)CN)C[C@H]3C)c12` showed a residual activity (AURKC (human)) of 71.9%, a residual activity (CAMK1G (human)) of 94.6% and a residual activity (CDC42BPB (human)) of 105%. The residual activity (CLK1 (human)) was 104%, the residual activity (DSTYK (human)) was 105% and the residual activity (DYRK4 (human)) was 90.3%. The residual activity (FRK (human)) was 114%, the residual activity (IGF1R (human)) was 110% and the residual activity (IKBKB (human)) was 109%. It also gave a residual activity (LCK (human)) of 97%, a residual activity (LIMK1 (human)) of 91.9% and a residual activity (MAP3K2 (human)) of 92.1%. For the same compound, the residual activity (MAP3K3 (human)) was 99.1%, the residual activity (MAP3K7 TAB1 (human)) was 94.9% and the residual activity (MAP4K5 (human)) was 103%. For the same compound, the residual activity (MAPK13 (human)) was 119%, the residual activity (MAPKAPK5 (human)) was 94.2% and the residual activity (MARK4 (human)) was 95.7%. For the same compound, the residual activity (MERTK (human)) was 95.4%, the residual activity (MINK1 (human)) was 97.2% and the residual activity (MST4 (human)) was 107%. It also gave a residual activity (PAK2 (human)) of 99.7%, a residual activity (PDGFRB (human)) of 104% and a residual activity (PDPK1 (human)) of 97.8%. The residual activity (PLK3 (human)) was 98.4%, the residual activity (PRKCD (human)) was 22.4% and the residual activity (PRKCZ (human)) was 91.2%. For the same compound, the residual activity (PRKX (human)) was 54.2%, the residual activity (PTK2 (human)) was 78% and the residual activity (RET (human)) was 94.4%. For the same compound, the residual activity (RIPK2 (human)) was 94.4%, the residual activity (RPS6KA5 KD2 (human)) was 100% and the residual activity (RPS6KA6 KD1 KD2 (human)) was 105%. The residual activity (STK11 (human)) was 86.5%, the residual activity (TAOK2 (human)) was 94% and the residual activity (TGFBR1 (human)) was 100%. The residual activity (TSSK2 (human)) was 99.6%, the residual activity (TXK (human)) was 103% and the residual activity (ZAP70 (human)) was 102%.
With `C[C@@H]1CCN(C(=O)CC#N)C[C@@H]1N(C)c1ncnc2[nH]ccc12` the residual activity (AURKC (human)) was 85.3%, the residual activity (CAMK1G (human)) was 97.8% and the residual activity (CDC42BPB (human)) was 95.4%. It also gave a residual activity (CLK1 (human)) of 99.5%, a residual activity (DSTYK (human)) of 98.4% and a residual activity (DYRK4 (human)) of 97.2%. It also gave a residual activity (EPHB2 (human)) of 100%, a residual activity (FRK (human)) of 106% and a residual activity (GSK3B (human)) of 99.6%. It also gave a residual activity (IGF1R (human)) of 93.1%, a residual activity (IKBKB (human)) of 88.2% and a residual activity (LCK (human)) of 80.2%. The residual activity (LIMK1 (human)) was 82%, the residual activity (MAP3K2 (human)) was 123% and the residual activity (MAP3K3 (human)) was 115%. For the same compound, the residual activity (MAP3K7 TAB1 (human)) was 87.5%, the residual activity (MAP4K5 (human)) was 112% and the residual activity (MAPKAPK5 (human)) was 97.3%. The residual activity (MARK4 (human)) was 81.7%, the residual activity (MERTK (human)) was 114% and the residual activity (MINK1 (human)) was 100%. For the same compound, the residual activity (MST4 (human)) was 105%, the residual activity (PAK2 (human)) was 111% and the residual activity (PDPK1 (human)) was 94.1%. For the same compound, the residual activity (PLK3 (human)) was 99.1%, the residual activity (PRKCD (human)) was 75.3% and the residual activity (PRKCZ (human)) was 91.7%. For the same compound, the residual activity (PRKX (human)) was 110%, the residual activity (PTK2 (human)) was 103% and the residual activity (RET (human)) was 92.4%. For the same compound, the residual activity (RIPK2 (human)) was 113%, the residual activity (RPS6KA5 KD2 (human)) was 94.8% and the residual activity (RPS6KA6 KD1 KD2 (human)) was 98.1%. The residual activity (STK11 (human)) was 104%, the residual activity (TAOK2 (human)) was 100% and the residual activity (TGFBR1 (human)) was 98.8%. It also gave a residual activity (TSSK2 (human)) of 87.9%, a residual activity (TXK (human)) of 98.4% and a residual activity (ZAP70 (human)) of 105%.
`COc1ccc2c(c1)/C(=C/c1cnc[nH]1)C(O)=N2` gave a residual activity (AURKC (human)) of 67.8%, a residual activity (BTK (human)) of 101% and a residual activity (CAMK1G (human)) of 95.6%. The residual activity (CDC42BPB (human)) was 104%, the residual activity (CLK1 (human)) was 87.3% and the residual activity (DSTYK (human)) was 106%. It also gave a residual activity (DYRK4 (human)) of 98.5%, a residual activity (EPHB2 (human)) of 100% and a residual activity (FRK (human)) of 96.4%. For the same compound, the residual activity (GSK3B (human)) was 35.4%, the residual activity (IGF1R (human)) was 94.4% and the residual activity (IKBKB (human)) was 94.9%. It also gave a residual activity (LCK (human)) of 92%, a residual activity (LIMK1 (human)) of 89.6% and a residual activity (MAP3K2 (human)) of 89.6%. It also gave a residual activity (MAP3K3 (human)) of 84.2%, a residual activity (MAP3K7 TAB1 (human)) of 63.7% and a residual activity (MAPK13 (human)) of 102%. For the same compound, the residual activity (MAPKAPK5 (human)) was 95.2%, the residual activity (MARK4 (human)) was 37.4% and the residual activity (MERTK (human)) was 84.7%. It also gave a residual activity (MINK1 (human)) of 57.9%, a residual activity (MST4 (human)) of 88.5% and a residual activity (PAK2 (human)) of 97.7%. It also gave a residual activity (PDPK1 (human)) of 97.8%, a residual activity (PLK3 (human)) of 93% and a residual activity (PRKCD (human)) of 95.5%. The residual activity (PRKCZ (human)) was 107%, the residual activity (PRKX (human)) was 87.9% and the residual activity (PTK2 (human)) was 87.9%. It also gave a residual activity (RIPK2 (human)) of 90%, a residual activity (RPS6KA5 KD2 (human)) of 89.2% and a residual activity (RPS6KA6 KD1 KD2 (human)) of 48.8%. The residual activity (STK11 (human)) was 51.7%, the residual activity (TAOK2 (human)) was 81.8% and the residual activity (TGFBR1 (human)) was 98.1%. The residual activity (TSSK2 (human)) was 97.3%, the residual activity (TXK (human)) was 93.5% and the residual activity (ZAP70 (human)) was 92.8%.
